Results taken from article PMC12064818, “A general assay platform to study protein pharmacology using ligand-dependent structural dynamics” (Nature Communications, 2025).
Several values for one entry are separate records, joined by “and”; a condition that tells them apart may be missing. Identical values can stand only once.

Molecular target: FLuc-C-NLuc (firefly luciferase) (Photinus pyralis, UniProt P08659, form not given/L550V)
Test: SDR assay, FLuc-C-NLuc
Conditions: for SDR + 10 mM ATP / SDR No ATP: 1 nM FLuc-C-NLuc, replicates; for SDR + 10 mM ATP / SDR No ATP / 1 nM FLuc-C-NLuc + 10 mM ATP, Mean / 1 nM FLuc-C-NLuc No ATP, Mean: Log [PTC124]; for SDR assay statistics Ave RLU / SDR assay statistics S:B / SDR assay statistics S:N / SDR assay statistics Z’: 32.8 µM ligand; for 1 nM FLuc-C-NLuc + 10 mM ATP, Mean / 1 nM FLuc-C-NLuc No ATP, Mean: SDR

FLuc-C-NLuc (firefly luciferase), sequence (P08659 2-550 L550V, form open): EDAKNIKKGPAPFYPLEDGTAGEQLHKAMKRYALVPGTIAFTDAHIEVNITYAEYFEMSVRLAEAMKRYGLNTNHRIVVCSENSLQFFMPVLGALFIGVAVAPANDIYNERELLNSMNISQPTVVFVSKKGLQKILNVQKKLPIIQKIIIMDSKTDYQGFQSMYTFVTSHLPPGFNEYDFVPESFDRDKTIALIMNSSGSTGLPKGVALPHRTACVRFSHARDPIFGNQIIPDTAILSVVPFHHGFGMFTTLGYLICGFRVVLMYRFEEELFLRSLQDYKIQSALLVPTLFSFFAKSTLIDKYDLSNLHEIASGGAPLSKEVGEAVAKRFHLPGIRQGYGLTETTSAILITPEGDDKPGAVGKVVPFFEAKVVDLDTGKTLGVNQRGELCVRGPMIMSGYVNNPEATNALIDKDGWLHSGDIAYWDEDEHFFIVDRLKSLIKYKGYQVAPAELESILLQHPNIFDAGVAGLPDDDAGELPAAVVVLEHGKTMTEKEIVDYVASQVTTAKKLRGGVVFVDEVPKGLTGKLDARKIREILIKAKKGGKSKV

## O=C(O)c1cccc(-c2noc(-c3ccccc3F)n2)c1 [PTC124, reference compound]
0 μM ATP
  pSDR50, FLuc-C-NLuc (1 nM): 5.88 ± 0.04
M -4.48
  SDR + 10 mM ATP: 7557.2 RLU and 7497.6 RLU and 7631.5 RLU and 7551.6 RLU and 7524.6 RLU and 7378.2 RLU
  SDR No ATP: 7094.5 RLU and 7036.1 RLU and 7197.7 RLU and 7251.5 RLU and 7107.6 RLU and 7010.0 RLU
  1 nM FLuc-C-NLuc + 10 mM ATP, Mean: 7523.5 RLU
  1 nM FLuc-C-NLuc No ATP, Mean: 7116.2 RLU
M -4.96
  SDR + 10 mM ATP: 8653.1 RLU and 8918.3 RLU and 8729.5 RLU and 8753.4 RLU and 8625.3 RLU and 8631.1 RLU
  SDR No ATP: 7649.4 RLU and 7690.6 RLU and 7782.9 RLU and 7784.7 RLU and 7753.8 RLU and 7789.6 RLU
  1 nM FLuc-C-NLuc + 10 mM ATP, Mean: 8718.4 RLU
  1 nM FLuc-C-NLuc No ATP, Mean: 7741.8 RLU
M -5.44
  SDR + 10 mM ATP: 9503.1 RLU and 9394.8 RLU and 9366.2 RLU and 9511.1 RLU and 9276.8 RLU and 9264.6 RLU
  SDR No ATP: 7463.4 RLU and 7521.3 RLU and 7506.8 RLU and 7660.8 RLU and 7389.5 RLU and 7591.3 RLU
  1 nM FLuc-C-NLuc + 10 mM ATP, Mean: 9386.1 RLU
  1 nM FLuc-C-NLuc No ATP, Mean: 7522.2 RLU
M -5.91
  SDR + 10 mM ATP: 9834.3 RLU and 9880.8 RLU and 9675.2 RLU and 9786.2 RLU and 9362.5 RLU and 9414.4 RLU
  SDR No ATP: 7041.2 RLU and 7015.2 RLU and 7004.0 RLU and 7050.2 RLU and 7076.1 RLU and 7039.0 RLU
  1 nM FLuc-C-NLuc + 10 mM ATP, Mean: 9658.9 RLU
  1 nM FLuc-C-NLuc No ATP, Mean: 7037.6 RLU
M -6.39
  SDR + 10 mM ATP: 9915.0 RLU and 9970.8 RLU and 10012.5 RLU and 10081.2 RLU and 9830.9 RLU and 9904.0 RLU
  SDR No ATP: 6691.1 RLU and 6782.7 RLU and 6754.8 RLU and 6847.3 RLU and 6762.8 RLU and 6799.3 RLU
  1 nM FLuc-C-NLuc + 10 mM ATP, Mean: 9952.4 RLU
  1 nM FLuc-C-NLuc No ATP, Mean: 6773.0 RLU
M -6.87
  SDR + 10 mM ATP: 10082.6 RLU and 10234.0 RLU and 10143.0 RLU and 10158.0 RLU and 9950.0 RLU and 10015.6 RLU
  SDR No ATP: 6611.5 RLU and 6294.6 RLU and 6649.4 RLU and 6762.3 RLU and 6579.8 RLU and 6635.0 RLU
  1 nM FLuc-C-NLuc + 10 mM ATP, Mean: 10097.2 RLU
  1 nM FLuc-C-NLuc No ATP, Mean: 6588.7 RLU
M -7.35
  SDR + 10 mM ATP: 10197.1 RLU and 10347.4 RLU and 10179.3 RLU and 10327.2 RLU and 10158.4 RLU and 10151.6 RLU
  SDR No ATP: 6611.5 RLU and 6675.5 RLU and 6753.6 RLU and 6721.7 RLU and 6667.7 RLU and 6659.2 RLU
  1 nM FLuc-C-NLuc + 10 mM ATP, Mean: 10226.8 RLU
  1 nM FLuc-C-NLuc No ATP, Mean: 6681.5 RLU
M -7.82
  SDR + 10 mM ATP: 10273.2 RLU and 10529.0 RLU and 10260.9 RLU and 10390.3 RLU and 10195.8 RLU and 10173.3 RLU
  SDR No ATP: 6601.3 RLU and 6794.9 RLU and 6657.3 RLU and 6777.0 RLU and 6066.9 RLU and 6627.0 RLU
  1 nM FLuc-C-NLuc + 10 mM ATP, Mean: 10303.8 RLU
  1 nM FLuc-C-NLuc No ATP, Mean: 6587.4 RLU
M -8.30
  SDR + 10 mM ATP: 10428.2 RLU and 10351.9 RLU and 10431.4 RLU and 10340.3 RLU and 10350.0 RLU and 10135.7 RLU
  SDR No ATP: 6797.1 RLU and 6778.7 RLU and 6811.3 RLU and 6783.1 RLU and 6776.8 RLU and 6755.1 RLU
  1 nM FLuc-C-NLuc + 10 mM ATP, Mean: 10339.6 RLU
  1 nM FLuc-C-NLuc No ATP, Mean: 6783.7 RLU
M -8.78
  SDR + 10 mM ATP: 10307.0 RLU and 10240.9 RLU and 10295.8 RLU and 10255.7 RLU and 10212.3 RLU and 10156.0 RLU
  SDR No ATP: 6765.6 RLU and 6820.8 RLU and 6789.0 RLU and 6870.9 RLU and 6762.2 RLU and 6786.7 RLU
  1 nM FLuc-C-NLuc + 10 mM ATP, Mean: 10244.6 RLU
  1 nM FLuc-C-NLuc No ATP, Mean: 6799.2 RLU
M -9.25
  SDR + 10 mM ATP: 9955.6 RLU and 10061.6 RLU and 10070.3 RLU and 10144.7 RLU and 9901.2 RLU and 9937.3 RLU
  SDR No ATP: 6778.5 RLU and 6738.4 RLU and 6784.4 RLU and 6835.7 RLU and 6812.5 RLU and 6775.6 RLU
  1 nM FLuc-C-NLuc + 10 mM ATP, Mean: 10011.8 RLU
  1 nM FLuc-C-NLuc No ATP, Mean: 6787.5 RLU
M -9.73
  SDR + 10 mM ATP: 9060.9 RLU and 8791.4 RLU and 9269.7 RLU and 9103.3 RLU and 8979.5 RLU and 9077.2 RLU
  SDR No ATP: 6814.0 RLU and 6880.4 RLU and 6857.6 RLU and 6871.7 RLU (2×) and 6648.1 RLU
  1 nM FLuc-C-NLuc + 10 mM ATP, Mean: 9047.0 RLU
  1 nM FLuc-C-NLuc No ATP, Mean: 6823.9 RLU
M -10.21
  SDR + 10 mM ATP: 8039.8 RLU and 7910.0 RLU and 8237.3 RLU and 8034.2 RLU and 8059.8 RLU and 8095.1 RLU
  SDR No ATP: 6863.1 RLU and 6890.7 RLU and 6909.9 RLU and 6915.4 RLU and 6885.5 RLU and 6851.9 RLU
  1 nM FLuc-C-NLuc + 10 mM ATP, Mean: 8062.7 RLU
  1 nM FLuc-C-NLuc No ATP, Mean: 6886.1 RLU
M -10.69
  SDR + 10 mM ATP: 7243.2 RLU and 7192.1 RLU and 7498.0 RLU and 7333.4 RLU and 7436.9 RLU and 7459.7 RLU
  SDR No ATP: 6866.7 RLU and 6851.6 RLU (2×) and 6906.1 RLU and 6919.7 RLU and 6944.4 RLU
  1 nM FLuc-C-NLuc + 10 mM ATP, Mean: 7360.6 RLU
  1 nM FLuc-C-NLuc No ATP, Mean: 6890.0 RLU
M -11.16
  SDR + 10 mM ATP: 6972.7 RLU and 6906.8 RLU (2×) and 7044.6 RLU and 7092.1 RLU and 7092.6 RLU
  SDR No ATP: 6852.5 RLU and 6810.5 RLU and 6865.3 RLU and 6827.1 RLU and 6885.6 RLU and 6853.6 RLU
  1 nM FLuc-C-NLuc + 10 mM ATP, Mean: 7002.6 RLU
  1 nM FLuc-C-NLuc No ATP, Mean: 6849.1 RLU
M -11.64
  SDR + 10 mM ATP: 6987.2 RLU and 6840.0 RLU and 7030.1 RLU and 6788.2 RLU and 7034.1 RLU and 6802.7 RLU
  SDR No ATP: 6913.4 RLU and 6769.3 RLU and 6893.0 RLU and 6868.3 RLU and 6877.6 RLU and 6825.9 RLU
  1 nM FLuc-C-NLuc + 10 mM ATP, Mean: 6913.7 RLU
  1 nM FLuc-C-NLuc No ATP, Mean: 6857.9 RLU
10 μM ATP
  pSDR50, FLuc-C-NLuc (1 nM): 9.95 ± 0.05
FLuc-C-NLuc (1 nM) + 10 mM ATP
  SDR assay statistics Ave RLU: 8287.4 RLU
  SDR assay statistics S:B: 1.2
  SDR assay statistics S:N: 3.4
  SDR assay statistics Z’: -0.259
FLuc-C-NLuc (1 nM) No ATP
  SDR assay statistics Ave RLU: 7850.3 RLU
  SDR assay statistics S:B: 1.2
  SDR assay statistics S:N: 2.6
  SDR assay statistics Z’: -0.605
